Laboratory results reported in PMC10614625 (Proceedings of the National Academy of Sciences of the …, 2023).

Assays:
DcitGLNT1 [1] = target: T1, DcitGLNT1 (Diaphorina citri, UniProt A0A2L0RID4); experiment: two-electrode voltage clamp, inward current in Xenopus oocytes; format: cell-based
T1 sequence (A0A2L0RID4 1-508): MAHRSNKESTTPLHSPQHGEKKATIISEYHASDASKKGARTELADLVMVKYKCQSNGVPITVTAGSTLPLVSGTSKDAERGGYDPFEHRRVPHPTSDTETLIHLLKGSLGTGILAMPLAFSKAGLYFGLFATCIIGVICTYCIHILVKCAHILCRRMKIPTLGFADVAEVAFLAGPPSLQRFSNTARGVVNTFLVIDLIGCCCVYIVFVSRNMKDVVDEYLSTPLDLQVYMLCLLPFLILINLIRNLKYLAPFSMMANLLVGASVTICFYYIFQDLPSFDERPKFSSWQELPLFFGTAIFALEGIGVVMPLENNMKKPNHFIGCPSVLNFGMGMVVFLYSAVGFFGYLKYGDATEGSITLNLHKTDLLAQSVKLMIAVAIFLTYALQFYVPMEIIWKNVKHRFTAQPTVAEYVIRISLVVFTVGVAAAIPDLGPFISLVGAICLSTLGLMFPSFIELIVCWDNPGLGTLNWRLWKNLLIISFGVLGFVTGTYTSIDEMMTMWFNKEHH

PhumGLNT1 [2] = target: T2, PhumGLNT1 (Pediculus humanus, UniProt A0A2L0RIB5); experiment: as above; format: cell-based
T2 sequence (A0A2L0RIB5 1-513): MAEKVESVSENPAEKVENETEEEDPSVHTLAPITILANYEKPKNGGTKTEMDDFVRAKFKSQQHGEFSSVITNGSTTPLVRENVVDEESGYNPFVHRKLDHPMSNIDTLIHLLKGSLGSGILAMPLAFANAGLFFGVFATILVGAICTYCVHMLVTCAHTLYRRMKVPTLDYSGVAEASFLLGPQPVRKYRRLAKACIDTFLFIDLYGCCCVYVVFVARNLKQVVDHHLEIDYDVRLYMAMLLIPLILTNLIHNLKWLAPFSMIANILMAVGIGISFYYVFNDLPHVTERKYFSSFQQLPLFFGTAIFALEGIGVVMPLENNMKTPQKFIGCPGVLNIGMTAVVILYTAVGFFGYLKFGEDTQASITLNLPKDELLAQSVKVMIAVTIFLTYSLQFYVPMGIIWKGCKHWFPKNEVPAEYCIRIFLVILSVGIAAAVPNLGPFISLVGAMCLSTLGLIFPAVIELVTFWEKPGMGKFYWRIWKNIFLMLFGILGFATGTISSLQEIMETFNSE

ApGLNT1 [3] = target: T3, ApGLNT1 (Acyrthosiphon pisum, UniProt F8RL01); experiment: as above; format: cell-based
T3 sequence (F8RL01 1-500): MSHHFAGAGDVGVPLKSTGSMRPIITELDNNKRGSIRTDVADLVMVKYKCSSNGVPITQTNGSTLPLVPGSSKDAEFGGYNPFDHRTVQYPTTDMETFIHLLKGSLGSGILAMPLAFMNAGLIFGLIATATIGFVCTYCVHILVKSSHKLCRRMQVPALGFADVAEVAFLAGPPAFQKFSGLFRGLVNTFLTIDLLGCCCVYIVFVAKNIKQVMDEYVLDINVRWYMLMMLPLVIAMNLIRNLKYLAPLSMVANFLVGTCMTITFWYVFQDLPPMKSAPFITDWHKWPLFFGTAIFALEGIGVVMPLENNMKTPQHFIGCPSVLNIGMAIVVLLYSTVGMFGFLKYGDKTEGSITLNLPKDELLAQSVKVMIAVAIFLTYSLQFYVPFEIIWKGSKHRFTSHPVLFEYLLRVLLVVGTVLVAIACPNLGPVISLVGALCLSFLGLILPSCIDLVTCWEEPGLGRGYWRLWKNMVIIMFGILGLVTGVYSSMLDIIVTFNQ

PcitGLNT1 [4] = target: T4, PcitGLNT1 (Planococcus citri, UniProt A0A2L0RIC1); experiment: as above; format: cell-based
T4 sequence (A0A2L0RIC1 1-502): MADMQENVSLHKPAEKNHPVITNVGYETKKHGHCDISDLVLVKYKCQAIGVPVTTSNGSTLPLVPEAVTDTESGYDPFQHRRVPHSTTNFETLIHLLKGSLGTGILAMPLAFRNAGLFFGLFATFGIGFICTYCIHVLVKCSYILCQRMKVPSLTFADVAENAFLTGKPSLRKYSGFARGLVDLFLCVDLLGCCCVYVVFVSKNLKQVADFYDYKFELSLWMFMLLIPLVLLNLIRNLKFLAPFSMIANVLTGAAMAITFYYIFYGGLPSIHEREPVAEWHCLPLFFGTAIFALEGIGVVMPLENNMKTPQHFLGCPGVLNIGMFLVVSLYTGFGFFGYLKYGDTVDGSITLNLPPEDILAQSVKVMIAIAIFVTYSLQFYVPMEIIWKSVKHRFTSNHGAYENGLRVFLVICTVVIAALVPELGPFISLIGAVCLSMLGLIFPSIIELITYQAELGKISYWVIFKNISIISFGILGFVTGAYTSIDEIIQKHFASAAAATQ

DcitGLNT1 [5] = target: T1, DcitGLNT1; experiment: cell-based
PcitGLNT1 [6] = target: T4, PcitGLNT1; experiment: cell-based
PhumGLNT1 [7] = target: T2, PhumGLNT1; experiment: cell-based
ApGLNT1 [8] = target: T3, ApGLNT1; experiment: cell-based

Compound	EC50 (DcitGLNT1 [1]) [mM]	EC50 (PhumGLNT1 [2]) [mM]	EC50 (ApGLNT1 [3]) [mM]	EC50 (PcitGLNT1 [4]) [mM]	IC50 (DcitGLNT1 [5]) [mM]	IC50 (PcitGLNT1 [6]) [mM]	IC50 (PhumGLNT1 [7]) [mM]	IC50 (ApGLNT1 [8]) [mM]
NC(=O)CC[C@H](N)C(=O)O [glutamine]	35.2 ± 18.5	1.5 ± 0.2	5.7 ± 0.8	2.1 ± 0.2				
N=C(N)NCCC[C@H](N)C(=O)O [arginine]					6.1 ± 0.8	2.5 ± 0.2	2.8 ± 2	5.1 ± 0.9
